Results as given in the Kinase Knowledgebase extract (Sharma et al. 2016).
Values joined by “and” are separate entries in the source; they are usually repeats but may differ in a detail not shown here. Equal entries are not always repeated.

The compounds below were run against PIK3CD (Human) (UniProt O00329) (assay: Enzyme Assay).
Sequence of PIK3CD (Human) (O00329 whole entry, looked up): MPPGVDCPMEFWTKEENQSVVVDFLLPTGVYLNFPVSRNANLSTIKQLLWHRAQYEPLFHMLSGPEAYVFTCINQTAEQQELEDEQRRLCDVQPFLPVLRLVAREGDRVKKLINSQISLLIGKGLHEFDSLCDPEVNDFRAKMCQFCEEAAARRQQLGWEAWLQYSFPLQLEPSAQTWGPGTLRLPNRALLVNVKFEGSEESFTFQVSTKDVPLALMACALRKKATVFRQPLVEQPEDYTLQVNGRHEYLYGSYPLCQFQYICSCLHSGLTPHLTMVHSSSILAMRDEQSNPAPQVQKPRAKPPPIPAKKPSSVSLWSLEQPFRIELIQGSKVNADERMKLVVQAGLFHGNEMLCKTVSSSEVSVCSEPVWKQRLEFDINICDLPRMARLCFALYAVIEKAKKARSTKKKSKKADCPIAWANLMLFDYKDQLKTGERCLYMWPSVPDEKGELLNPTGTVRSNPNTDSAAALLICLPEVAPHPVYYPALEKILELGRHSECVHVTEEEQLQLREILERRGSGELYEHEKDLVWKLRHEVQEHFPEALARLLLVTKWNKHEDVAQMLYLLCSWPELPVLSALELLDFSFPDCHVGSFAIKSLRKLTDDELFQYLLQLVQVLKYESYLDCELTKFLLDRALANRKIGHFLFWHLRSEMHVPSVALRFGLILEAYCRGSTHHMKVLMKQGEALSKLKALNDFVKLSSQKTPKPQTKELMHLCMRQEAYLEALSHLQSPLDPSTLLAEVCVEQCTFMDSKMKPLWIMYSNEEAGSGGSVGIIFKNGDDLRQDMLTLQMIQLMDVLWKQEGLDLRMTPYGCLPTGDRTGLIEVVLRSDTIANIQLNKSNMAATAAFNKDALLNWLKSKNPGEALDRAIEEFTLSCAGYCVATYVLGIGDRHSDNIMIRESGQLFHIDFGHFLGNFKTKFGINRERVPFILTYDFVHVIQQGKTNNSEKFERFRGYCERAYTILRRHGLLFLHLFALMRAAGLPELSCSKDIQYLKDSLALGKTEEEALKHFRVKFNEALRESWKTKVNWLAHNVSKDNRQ

Row | IC50 | SMILES
1 | 1.2 nM and 1.08 nM | Cc1nc(-c2cn3c(n2)-c2ccc(-c4cnn(C)c4C4CN(C(C)C)CCO4)cc2OCC3)n(C(C)C)n1 (centres undefined)

What follows are compounds tested against PIK3CA (human) (UniProt P42336) (assay: Inhibition of PIK3CA Kinase Activity).
Sequence of PIK3CA (human) (P42336 whole entry, looked up): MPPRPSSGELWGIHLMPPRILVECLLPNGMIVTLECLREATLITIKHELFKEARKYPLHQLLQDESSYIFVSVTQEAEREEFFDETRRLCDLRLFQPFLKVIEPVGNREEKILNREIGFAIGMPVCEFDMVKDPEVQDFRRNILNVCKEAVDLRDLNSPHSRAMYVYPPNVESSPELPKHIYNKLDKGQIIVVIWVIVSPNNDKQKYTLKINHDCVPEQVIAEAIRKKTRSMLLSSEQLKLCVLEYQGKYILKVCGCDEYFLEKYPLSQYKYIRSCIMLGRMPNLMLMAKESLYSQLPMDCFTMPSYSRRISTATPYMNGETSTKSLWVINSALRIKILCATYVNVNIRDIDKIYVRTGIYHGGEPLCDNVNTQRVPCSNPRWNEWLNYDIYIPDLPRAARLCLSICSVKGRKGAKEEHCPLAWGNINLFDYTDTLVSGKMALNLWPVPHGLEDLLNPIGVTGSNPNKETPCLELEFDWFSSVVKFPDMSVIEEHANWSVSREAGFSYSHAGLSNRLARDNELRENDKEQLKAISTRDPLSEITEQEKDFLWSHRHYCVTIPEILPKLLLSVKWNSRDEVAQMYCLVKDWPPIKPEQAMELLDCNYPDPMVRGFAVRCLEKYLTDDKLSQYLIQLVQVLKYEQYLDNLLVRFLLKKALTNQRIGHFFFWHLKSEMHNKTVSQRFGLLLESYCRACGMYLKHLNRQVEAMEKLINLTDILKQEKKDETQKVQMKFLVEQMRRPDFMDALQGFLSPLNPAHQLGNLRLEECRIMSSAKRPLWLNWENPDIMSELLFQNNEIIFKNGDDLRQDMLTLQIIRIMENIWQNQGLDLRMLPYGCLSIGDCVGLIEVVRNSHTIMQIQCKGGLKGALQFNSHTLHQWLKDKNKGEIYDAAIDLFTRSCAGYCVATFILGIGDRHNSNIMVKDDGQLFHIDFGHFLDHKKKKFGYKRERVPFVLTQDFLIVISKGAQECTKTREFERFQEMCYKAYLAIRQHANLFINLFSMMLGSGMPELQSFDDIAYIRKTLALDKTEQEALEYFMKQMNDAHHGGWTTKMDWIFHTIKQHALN

Row | IC50 | SMILES
2 | 17.9 nM and 107 nM and 41.5 nM | Cc1nc(-c2cn3c(n2)-c2ccc(-c4cnn(C)c4C4CN(C(C)C)CCO4)cc2OCC3)n(C(C)C)n1 (centres undefined)
3 | 219 nM and 49.8 nM and 81.2 nM | Cc1nc(-c2cn3c(n2)-c2ccc(-c4cnn(C)c4C4CC(N(C)C(C)C)CCO4)cc2OCC3)n(C(C)C)n1 (centres undefined)

The remaining lines, values behind:

Row | SMILES | IC50
4 | CC(C)n1ncnc1-c1cn2c(n1)-c1cc([S+]([O-])C3CCN(C(C)(C)C)CC3)ccc1OCC2 (centres undefined) | 149 nM
5 | CC(C)n1nc(CO)nc1-c1cn2c(n1)-c1ccc(-c3ccnn3C3CCN(C)CC3)cc1OCC2 | 38.5 nM
6 | Cc1nc(-c2cn3c(n2)-c2cc([C@@H](C)N4CCN(C(C)(C)C)CC4)c(F)cc2OCC3)n(C(C)C)n1 | 372 nM
7 | Cc1nc(-c2cn3c(n2)-c2cc(-c4cnn(C)c4C4CC(N(C)C)CCO4)c(F)cc2OCC3)n(C(C)C)n1 (centres undefined) | 9.57 nM
8 | Cc1nc(-c2cn3c(n2)-c2cc([C@H](C)N4CCN(C(C)(C)CO)CC4)ncc2OCC3)n(C(C)C)n1 | 180 nM
9 | Cc1nc(-c2cn3c(n2)-c2cc(C(C)N4CCN(CC(C)(C)O)CC4)c(C)cc2OCC3)n(C(C)C)n1 (centres undefined) | 76.2 nM
